Values of other authors, collected in patent publication US20210363253A1, “USE OF COMBINED TREATMENT OF PD-1 ANTIBODY AND APATINIB FOR TREATING TRIPLE NEGATIVE BREAST CANCER” (JIANGSU HENGRUI MEDICINE CO., LTD., priority 2017, published 2021).

Conditions: with oxaliplatin, 5-Fu, docetaxel, doxorubicin; preclinical animal experiments

In the case of `N#CC1(c2ccc(NC(=O)c3cccnc3NCc3ccncc3)cc2)CCCC1` [Apatinib], the “efficacy of cytotoxic drugs in combination with Apatinib” value is given as “significantly increase their efficacy”.
